The values below come from PubChem BioAssay (NCI).

Several values for one entry are separate records, joined by “and”; a condition that tells them apart may be missing. Identical values can stand only once.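 48-hour exposure; five concentrations; linearly interpolated endpoints. GI50 marks 50% less growth. TGI marks complete inhibition of growth.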 A value given as a limit tells only on which side of the number the result lay.

What all share (assay): inhibition of tumour cell growth, NCI panel, 48 h
For assay [1], the system named is UACC-257 melanoma.
Assay [2] has as its system EKVX NSCLC.
Assay [3] relates to M14 melanoma.
Assay [4] concerns NCI-H460 lung.
The test system of assay [5] is NCI/ADR-RES ovarian.
The subject of assay [6] is NCI-H522 lung.
For assay [7], the system named is SK-MEL-5 melanoma.
For assay [8], the system named is SR leukemia.
The subject of assay [9] is UACC-62 melanoma.
Assay [10] relates to MDA-MB-231 breast.

Turning to `Cc1cc(O)c2c(c1)C(=O)C=CC2=O`, the GI50 in [1] is 9.95 µM; in [2], 7.46 µM and 3.6 µM; in [6] it was 3.8 µM and 1.46 µM; in assay [7], 7.53 µM and 2.27 µM; in assay [8] it was 1.14 µM and 0.33 µM. Further, the TGI in assay [1] was 11.3 µM and 27.8 µM; in [2], 20.6 µM and 15.2 µM; in [3], 25.7 µM and 21.7 µM; in [4], 45.5 µM and 31.1 µM; in assay [5] it was 37 µM and 47.2 µM; in [6] it was 8.05 µM and 3.06 µM. In addition, the TGI is 22.4 µM and 6.77 µM in assay [7]; 18.9 µM and 25.3 µM in [9]; 25.3 µM and 18.6 µM in assay [10].
Consider `O=C(NCCNCCO)c1ccc2c(c1)oc1cc3ccccc3c(=O)n12`, for which the GI50 in assay [1] was 19.6 µM; in assay [2] it was 37.8 µM; in [3], above 50 µM; in assay [4], 25.4 µM; in [5], above 50 µM; in [6] it was 18.2 µM. Moreover, the GI50 in assay [7] was 12.6 µM; in [8], 24.8 µM; in [9], above 50 µM; in assay [10] it was 29.8 µM. The TGI in assay [1], in assay [2], in assay [3], in assay [4], in assay [5] and in assay [6] was above 50 µM throughout. Further, the TGI in [7] was 32.1 µM; in assay [8] it was above 50 µM; in assay [9], above 50 µM; in assay [10], above 50 µM.
Consider `O=C1NC(=N[C@@H](CO)c2ccccc2)S/C1=C\c1ccc2ncccc2c1`, for which the GI50 was 13.9 µM in assay [1]; 6.16 µM in assay [3]; 7.75 µM in assay [4]; above 25 µM in assay [5]; 5.93 µM in assay [6]; 9.14 µM in [7]. For the same compound, the GI50 was 1.53 µM in assay [8], 10.4 µM in assay [9] and above 23.1 µM in [10]. Also, the TGI in assay [1] was above 25 µM; in assay [3] it was above 25 µM; in assay [4] it was above 25 µM; in assay [5], above 25 µM; in [6], above 20 µM; in [7] it was above 25 µM. The TGI in [8] is 12.7 µM; in assay [9], above 25 µM; in [10], above 25 µM.
Turning to `O=C(OCc1ccc2c(Br)cc(Br)c(O)c2n1)c1cc2ccccc2[nH]1`, the GI50 in assay [1] is 1.36 µM; in [2], 1.46 µM; in assay [3], 0.763 µM; in assay [4] it was 1.53 µM; in [5], 1.63 µM; in [6], 0.552 µM. Besides, the GI50 in [7] was 1.61 µM; in [8], 0.43 µM; in assay [9] it was 1.16 µM; in assay [10], 0.963 µM. The TGI was determined as 3.38 µM in assay [1]; 3 µM in [2]; 2.15 µM in [3]; 3.33 µM in assay [4]; 7.59 µM in assay [5]; 2.19 µM in [6]. Besides, the TGI in assay [7] was determined as 2.99 µM; in assay [8], 4.22 µM; in [9], 2.47 µM; in assay [10], 2.44 µM.
Take `FC(F)(F)Oc1cccc(-c2cc(NCCCCCCNc3cc(-c4cccc(OC(F)(F)F)c4)nc4ccc(N5CCCC5)cc34)c3cc(N4CCCC4)ccc3n2)c1`: the GI50 is 1.89 µM in assay [1]; 1.84 µM in assay [3]; 1.84 µM in [4]; 2.07 µM in [5]; 2.05 µM in assay [6]; 1.77 µM in assay [7]. Besides, the GI50 in assay [9] is 1.77 µM; in assay [10] it was 1.72 µM. The TGI in assay [1] was 3.88 µM; in [3], 3.65 µM; in [4], 3.4 µM; in assay [5], 4.5 µM; in assay [6] it was 4.76 µM; in assay [7], 3.22 µM. In addition, the TGI in assay [9] and in [10] was 3.16 µM throughout.
`Cn1c([N+](=O)[O-])cnc1C=C1C(=O)c2ccccc2C1=O`: the GI50 in assay [1] is 3.12 µM; in assay [3], 3.83 µM; in assay [4], 7.1 µM; in assay [5], 5.34 µM; in assay [6], 1.89 µM; in [7] it was 8.67 µM. The GI50 in assay [8] is 1.87 µM; in assay [9], 2.04 µM; in assay [10], 2.72 µM. In addition, the TGI is 14.7 µM in [1]; 16.6 µM in [3]; 22 µM in assay [4]; 83.9 µM in assay [5]; 4.37 µM in [6]; 21.9 µM in assay [7]. The figures for the TGI in [8], in [9] and in assay [10] were 10.5 µM, 5.75 µM and 10.1 µM, respectively.
For `Cc1cccc(NC(=O)c2sc3nc4c(cc3c2N)C(=O)CCC4)c1`, the TGI in assay [1] is above 100 µM; in assay [3] it was above 34.6 µM; in assay [4], above 39.3 µM; in assay [5], above 49.8 µM; in assay [6], 1.68 µM; in assay [7], above 57.4 µM. Further, the TGI in assay [8] is above 100 µM; in assay [9] it was above 89.1 µM; in assay [10] it was above 44.5 µM. The GI50 in assay [3] was 0.179 µM; in assay [4] it was 0.312 µM; in assay [5], 0.259 µM; in [6], 0.124 µM; in assay [7], 0.115 µM; in assay [8] it was 0.445 µM. Besides, the GI50 was 0.49 µM in assay [9] and 0.585 µM in assay [10].
